In the supplement of paper PMC10307832:

Assays:
Assay in all cases: relative viability (nuclei count vs DMSO), 5 days (fraction); higher = more cells survive
Dasatinib + Alpelisib = compound: Cc1nc(Nc2ncc(C(=O)Nc3c(C)cccc3Cl)s2)cc(N2CCN(CCO)CC2)n1 [Dasatinib] + Cc1nc(NC(=O)N2CCC[C@H]2C(N)=O)sc1-c1ccnc(C(C)(C)C(F)(F)F)c1 [Alpelisib] (partner 2 µM)
Procedure, shortened: (§1)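 Lung cancer cell lines were pin-tool dosed in 1536-well plates on the day after seeding, with either a lone drug or a fixed anchor-drug dose plus five library-drug doses (not always all listed) in √10 steps. Nuclei were counted on 4× images after 5 days. Relative viability is the ratio of treated-well to vehicle-well nuclei counts, with each value a median of duplicate plates.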

ALW-II-49-7 + Olaparib = compound: Cc1ccc(C(=O)Nc2cccc(C(F)(F)F)c2)cc1Nc1cncc(C(N)=O)c1 [ALW-II-49-7] + O=C(c1cc(Cc2n[nH]c(=O)c3ccccc23)ccc1F)N1CCN(C(=O)C2CC2)CC1 [Olaparib] (partner 8 µM)
Procedure, shortened: as §1

Dasatinib + AZD7762 = compound: Cc1nc(Nc2ncc(C(=O)Nc3c(C)cccc3Cl)s2)cc(N2CCN(CCO)CC2)n1 [Dasatinib] + NC(=O)Nc1cc(-c2cccc(F)c2)sc1C(=O)N[C@H]1CCCNC1 [AZD7762] (partner 0.2 µM)
Procedure, shortened: as §1

XMD13-2 + OSI-027 = compound: C1CC1C(=O)NC2=NNC3=C2C=CC(=C3)C4=CC(=CC=C4)C(=O)NC5CC5 [XMD13-2] + COc1cccc2cc(-c3nc([C@H]4CC[C@H](C(=O)O)CC4)n4ncnc(N)c34)[nH]c12 [OSI-027] (partner 0.5 µM)
Procedure, shortened: as §1

Cell Line | relative viability (Dasatinib + Alpelisib; first compound 0.005 µM) | relative viability (Dasatinib + Alpelisib; first compound 0.01581 µM) | relative viability (Dasatinib + Alpelisib; first compound 0.05 µM) | relative viability (Dasatinib + Alpelisib; first compound 0.1581 µM) | relative viability (Dasatinib + Alpelisib; first compound 0.5 µM) | relative viability (ALW-II-49-7 + Olaparib; first compound 0.08 µM) | relative viability (ALW-II-49-7 + Olaparib; first compound 0.253 µM) | relative viability (ALW-II-49-7 + Olaparib; first compound 0.8 µM) | relative viability (ALW-II-49-7 + Olaparib; first compound 2.53 µM) | relative viability (ALW-II-49-7 + Olaparib; first compound 8 µM) | relative viability (Dasatinib + AZD7762; first compound 0.005 µM) | relative viability (Dasatinib + AZD7762; first compound 0.01581 µM) | relative viability (Dasatinib + AZD7762; first compound 0.05 µM) | relative viability (Dasatinib + AZD7762; first compound 0.1581 µM) | relative viability (Dasatinib + AZD7762; first compound 0.5 µM) | relative viability (XMD13-2 + OSI-027; first compound 0.05 µM) | relative viability (XMD13-2 + OSI-027; first compound 0.1581 µM) | relative viability (XMD13-2 + OSI-027; first compound 0.5 µM) | relative viability (XMD13-2 + OSI-027; first compound 1.581 µM) | relative viability (XMD13-2 + OSI-027; first compound 5 µM)
NCI-H838 | 0.82 | 0.678 | 0.585 | 0.308 | 0.233 | 0.715 | 0.744 | 0.881 | 0.844 | 0.7 | 0.868 | 0.786 | 0.811 | 0.685 | 0.669 | 0.432 | 0.402 | 0.339 | 0.398 | 0.437
NCI-H1355 | 0.674 | 0.621 | 0.652 | 0.53 | 0.297 | 0.68 | 0.822 | 0.846 | 0.655 | 0.651 | 0.851 | 0.711 | 0.694 | 0.571 | 0.535 | 0.48 | 0.413 | 0.394 | 0.382 | 0.387
NCI-H1395 | 0.896 | 0.926 | 0.947 | 0.544 | 0.519 | 0.473 | 0.449 | 0.435 | – | 0.459 | 0.401 | 0.39 | 0.358 | 0.356 | 0.356 | 0.684 | 0.757 | 0.653 | 0.633 | 0.647
NCI-H1437 | 1.03 | 0.893 | 1.03 | 0.735 | 0.513 | 0.611 | 0.631 | 0.658 | 0.647 | 0.601 | 1.22 | 1.05 | 1.04 | 0.893 | 0.221 | 0.958 | 0.929 | 0.885 | 0.873 | 0.985
NCI-H1651 | 0.899 | 0.853 | 0.66 | 0.544 | 0.619 | 0.15 | 0.176 | 0.176 | 0.169 | 0.171 | 0.475 | 0.384 | 0.382 | 0.374 | 0.333 | 0.813 | 0.716 | 0.768 | 0.747 | 0.778
NCI-H1666 | 0.964 | 0.855 | 0.844 | 0.563 | 0.31 | 0.692 | 0.798 | 0.684 | 0.738 | 0.728 | 0.852 | 0.685 | 0.762 | 0.622 | 0.411 | 0.869 | 0.839 | 0.862 | 0.814 | 0.817
NCI-H1734 | 0.553 | 0.477 | 0.469 | 0.346 | 0.278 | 0.57 | 0.628 | 0.596 | 0.46 | 0.558 | 0.524 | 0.482 | 0.482 | 0.406 | 0.386 | 0.683 | 0.554 | 0.647 | 0.502 | 0.447
NCI-H1755 | 0.775 | 0.602 | 0.437 | 0.275 | 0.137 | 0.888 | 0.942 | 0.913 | 0.798 | 0.627 | 0.424 | 0.33 | 0.296 | 0.25 | 0.215 | 0.798 | 0.699 | 0.797 | 0.576 | 0.775
NCI-H1792 | 0.73 | 0.431 | 0.532 | 0.389 | 0.153 | 0.501 | 0.384 | 0.6 | 0.327 | 0.342 | 0.62 | 0.532 | 0.489 | 0.19 | 0.0904 | 0.772 | 0.813 | 0.696 | 0.914 | 0.669
NCI-H1793 | 0.554 | 0.45 | 0.545 | 0.512 | 0.443 | 0.977 | 0.834 | 0.785 | 0.911 | 0.753 | 0.425 | 0.369 | 0.247 | 0.229 | 0.273 | 0.404 | – | 0.255 | 0.277 | 0.271
NCI-H1915 | 1.01 | 0.979 | 0.933 | 0.395 | 0.311 | 0.243 | 0.275 | 0.224 | 0.211 | 0.398 | 0.693 | 0.616 | 0.509 | 0.21 | 0.212 | 0.756 | 0.591 | 0.645 | 0.548 | 0.595
NCI-H1944 | 0.781 | 0.725 | 0.575 | 0.289 | 0.203 | 0.451 | 0.391 | 0.381 | 0.375 | 0.374 | 0.41 | 0.388 | 0.294 | 0.21 | 0.187 | 0.499 | 0.395 | 0.362 | 0.471 | 0.43
NCI-H1975 | 0.579 | 0.437 | 0.361 | 0.21 | 0.199 | 0.739 | 0.845 | 0.793 | 0.682 | 0.683 | 0.714 | 0.538 | 0.578 | 0.442 | 0.317 | 0.829 | 0.776 | 0.824 | 0.786 | 0.774
NCI-H1993 | 0.702 | 0.66 | 0.653 | 0.521 | 0.587 | 1.01 | 1.02 | 0.928 | 1.06 | 1.32 | 0.777 | 0.639 | 0.755 | 0.444 | 0.485 | 0.448 | 0.5 | 0.511 | 0.558 | 0.432
NCI-H2085 | 0.874 | 0.794 | 0.596 | 0.292 | 0.2 | 0.701 | 0.776 | 0.756 | 0.844 | 0.763 | 0.992 | 0.688 | 0.436 | 0.39 | 0.2 | 0.74 | 0.749 | 0.757 | 0.654 | 0.916
NCI-H2087 | 0.988 | 0.957 | 1.34 | 1.01 | 0.613 | 0.583 | 0.569 | 0.463 | 0.578 | 0.514 | 1.34 | 1.19 | 1.49 | 0.857 | 0.556 | 0.716 | 0.69 | 0.482 | 0.565 | 0.489
